Results as given in ChEMBL document CHEMBL2057203, “Synthesis and evaluation of novel F-18 labeled 4-aminoquinazoline derivatives: potential PET imaging agents for tumor detection” (Bioorg Med Chem Lett, 2012).

Legend:
Lung [1] = test: Biodistribution in S180 tumor-bearing mouse lungs at 8 to 10 uCi, iv after 5 mins by gamma counting; type: ADME, organism-based; conditions: in vivo
Nucleic Acid [2] = test: Ratio of drug level in tumor to blood in S180 tumor-bearing mouse at 8 to 10 uCi, iv at 60 mins by gamma counting; type: ADME, organism-based; conditions: tumour, 1 h
Nucleic Acid [3] = test: Ratio of drug level in tumor to brain in S180 tumor-bearing mouse at 8 to 10 uCi, iv at 5 mins by gamma counting; type: ADME, organism-based; conditions: in vivo
Heart [4] = test: Biodistribution in S180 tumor-bearing mouse heart at 8 to 10 uCi, iv after 30 mins by gamma counting; type: ADME, organism-based; conditions: in vivo, 0.5 h
Nucleic Acid [5] = test: Ratio of drug level in tumor to brain in S180 tumor-bearing mouse at 8 to 10 uCi, iv at 60 mins by gamma counting; type: ADME, organism-based; conditions: in vivo, 1 h
Muscle tissue [6] = test: Biodistribution in S180 tumor-bearing mouse muscle at 8 to 10 uCi, iv after 5 mins by gamma counting; type: ADME, organism-based; conditions: in vivo
Kidney [7] = test: Biodistribution in S180 tumor-bearing mouse kidney at 8 to 10 uCi, iv after 30 mins by gamma counting; type: ADME, organism-based; conditions: in vivo, 0.5 h
Spleen [8] = test: Biodistribution in S180 tumor-bearing mouse spleen at 8 to 10 uCi, iv after 30 mins by gamma counting; type: ADME, organism-based; conditions: in vivo, 0.5 h
[9] = Chemical stability in PBS after 2 hrs by radio-HPLC analysis at room temperature; type: physicochemical; conditions: buffer
Stomach [10] = test: Biodistribution in S180 tumor-bearing mouse stomach at 8 to 10 uCi, iv after 5 mins by gamma counting; type: ADME, organism-based; conditions: in vivo
Stomach [11] = test: Biodistribution in S180 tumor-bearing mouse stomach at 8 to 10 uCi, iv after 60 mins by gamma counting; type: ADME, organism-based; conditions: in vivo, 1 h
Blood [12] = test: Biodistribution in S180 tumor-bearing mouse blood at 8 to 10 uCi, iv after 120 mins by gamma counting; type: ADME, organism-based; conditions: in vivo, 2 h
Nucleic Acid [13] = test: Ratio of drug level in tumor to muscle in S180 tumor-bearing mouse at 8 to 10 uCi, iv at 30 mins by gamma counting; type: ADME, organism-based; conditions: in vivo, 0.5 h
Lung [14] = test: Biodistribution in S180 tumor-bearing mouse lung at 8 to 10 uCi, iv after 30 mins by gamma counting; type: ADME, organism-based; conditions: in vivo, 0.5 h
Muscle tissue [15] = test: Biodistribution in S180 tumor-bearing mouse muscle at 8 to 10 uCi, iv after 30 mins by gamma counting; type: ADME, organism-based; conditions: in vivo, 0.5 h
Nucleic Acid [16] = test: Ratio of drug level in tumor to blood in S180 tumor-bearing mouse at 8 to 10 uCi, iv at 5 mins by gamma counting; type: ADME, organism-based; conditions: tumour
Brain [17] = test: Biodistribution in S180 tumor-bearing mouse brain at 8 to 10 uCi, iv after 30 mins by gamma counting; type: ADME, organism-based; conditions: in vivo, 0.5 h
Liver [18] = test: Biodistribution in S180 tumor-bearing mouse liver at 8 to 10 uCi, iv after 5 mins by gamma counting; type: ADME, organism-based; conditions: in vivo
Kidney [19] = test: Biodistribution in S180 tumor-bearing mouse kidneys at 8 to 10 uCi, iv after 5 mins by gamma counting; type: ADME, organism-based; conditions: in vivo
Kidney [20] = test: Biodistribution in S180 tumor-bearing mouse kidney at 8 to 10 uCi, iv after 120 mins by gamma counting; type: ADME, organism-based; conditions: in vivo, 2 h
Lung [21] = test: Biodistribution in S180 tumor-bearing mouse lung at 8 to 10 uCi, iv after 120 mins by gamma counting; type: ADME, organism-based; conditions: in vivo, 2 h
Stomach [22] = test: Biodistribution in S180 tumor-bearing mouse stomach at 8 to 10 uCi, iv after 30 mins by gamma counting; type: ADME, organism-based; conditions: in vivo, 0.5 h
Mus musculus [23] = test: Biodistribution in S180 cells xenografted in mouse tumor at 8 to 10 uCi, iv after 60 mins by gamma counting; type: ADME, organism-based, Neoplasm, CCRF S-180; conditions: in vivo, 1 h
Plasma = test: Metabolic stability in mouse plasma after 2 hrs by radio-HPLC analysis; type: ADME, cell-free
Kidney [24] = test: Biodistribution in S180 tumor-bearing mouse kidney at 8 to 10 uCi, iv after 60 mins by gamma counting; type: ADME, organism-based; conditions: in vivo, 1 h
Mus musculus [25] = test: Biodistribution in S180 cells xenografted in mouse tumor at 8 to 10 uCi, iv after 5 mins by gamma counting; type: ADME, organism-based, Neoplasm, CCRF S-180; conditions: in vivo
Nucleic Acid [26] = test: Ratio of drug level in tumor to muscle in S180 tumor-bearing mouse at 8 to 10 uCi, iv at 120 mins by gamma counting; type: ADME, organism-based; conditions: in vivo, 2 h
Lung [27] = test: Biodistribution in S180 tumor-bearing mouse lung at 8 to 10 uCi, iv after 60 mins by gamma counting; type: ADME, organism-based; conditions: in vivo, 1 h
Nucleic Acid [28] = test: Ratio of drug level in tumor to blood in S180 tumor-bearing mouse at 8 to 10 uCi, iv at 30 mins by gamma counting; type: ADME, organism-based; conditions: tumour, 0.5 h
Nucleic Acid [29] = test: Ratio of drug level in tumor to blood in S180 tumor-bearing mouse at 8 to 10 uCi, iv at 120 mins by gamma counting; type: ADME, organism-based; conditions: tumour, 2 h
Blood [30] = test: Biodistribution in S180 tumor-bearing mouse blood at 8 to 10 uCi, iv after 60 mins by gamma counting; type: ADME, organism-based; conditions: in vivo, 1 h
Blood [31] = test: Biodistribution in S180 tumor-bearing mouse blood at 8 to 10 uCi, iv after 5 mins by gamma counting; type: ADME, organism-based; conditions: in vivo
Muscle tissue [32] = test: Biodistribution in S180 tumor-bearing mouse muscle at 8 to 10 uCi, iv after 60 mins by gamma counting; type: ADME, organism-based; conditions: in vivo, 1 h
Liver [33] = test: Biodistribution in S180 tumor-bearing mouse liver at 8 to 10 uCi, iv after 30 mins by gamma counting; type: ADME, organism-based; conditions: in vivo, 0.5 h
Nucleic Acid [34] = test: Ratio of drug level in tumor to brain in S180 tumor-bearing mouse at 8 to 10 uCi, iv at 30 mins by gamma counting; type: ADME, organism-based; conditions: in vivo, 0.5 h
Nucleic Acid [35] = test: Ratio of drug level in tumor to muscle in S180 tumor-bearing mouse at 8 to 10 uCi, iv at 5 mins by gamma counting; type: ADME, organism-based; conditions: in vivo
[36] = Chemical stability in PBS after 2 hrs by radio-HPLC analysis at 60 degC; type: physicochemical; conditions: buffer
Heart [37] = test: Biodistribution in S180 tumor-bearing mouse heart at 8 to 10 uCi, iv after 120 mins by gamma counting; type: ADME, organism-based; conditions: in vivo, 2 h
Brain [38] = test: Biodistribution in S180 tumor-bearing mouse brain at 8 to 10 uCi, iv after 120 mins by gamma counting; type: ADME, organism-based; conditions: in vivo, 2 h
Nucleic Acid [39] = test: Ratio of drug level in tumor to muscle in S180 tumor-bearing mouse at 8 to 10 uCi, iv at 60 mins by gamma counting; type: ADME, organism-based; conditions: in vivo, 1 h
Mus musculus [40] = test: Biodistribution in S180 cells xenografted in mouse tumor at 8 to 10 uCi, iv after 120 mins by gamma counting; type: ADME, organism-based, Neoplasm, CCRF S-180; conditions: in vivo, 2 h
Liver [41] = test: Biodistribution in S180 tumor-bearing mouse liver at 8 to 10 uCi, iv after 60 mins by gamma counting; type: ADME, organism-based; conditions: in vivo, 1 h
Mus musculus [42] = test: Biodistribution in S180 cells xenografted in mouse tumor at 8 to 10 uCi, iv after 30 mins by gamma counting; type: ADME, organism-based, Neoplasm, CCRF S-180; conditions: in vivo, 0.5 h
Muscle tissue [43] = test: Biodistribution in S180 tumor-bearing mouse muscle at 8 to 10 uCi, iv after 120 mins by gamma counting; type: ADME, organism-based; conditions: in vivo, 2 h
Stomach [44] = test: Biodistribution in S180 tumor-bearing mouse stomach at 8 to 10 uCi, iv after 120 mins by gamma counting; type: ADME, organism-based; conditions: in vivo, 2 h
Nucleic Acid [45] = test: Ratio of drug level in tumor to brain in S180 tumor-bearing mouse at 8 to 10 uCi, iv at 120 mins by gamma counting; type: ADME, organism-based; conditions: in vivo, 2 h
Blood [46] = test: Biodistribution in S180 tumor-bearing mouse blood at 8 to 10 uCi, iv after 30 mins by gamma counting; type: ADME, organism-based; conditions: in vivo, 0.5 h
Brain [47] = test: Biodistribution in S180 tumor-bearing mouse brain at 8 to 10 uCi, iv after 5 mins by gamma counting; type: ADME, organism-based; conditions: in vivo
Spleen [48] = test: Biodistribution in S180 tumor-bearing mouse spleen at 8 to 10 uCi, iv after 60 mins by gamma counting; type: ADME, organism-based; conditions: in vivo, 1 h
Brain [49] = test: Biodistribution in S180 tumor-bearing mouse brain at 8 to 10 uCi, iv after 60 mins by gamma counting; type: ADME, organism-based; conditions: in vivo, 1 h
Spleen [50] = test: Biodistribution in S180 tumor-bearing mouse spleen at 8 to 10 uCi, iv after 5 mins by gamma counting; type: ADME, organism-based; conditions: in vivo
Heart [51] = test: Biodistribution in S180 tumor-bearing mouse heart at 8 to 10 uCi, iv after 5 mins by gamma counting; type: ADME, organism-based; conditions: in vivo
[52] = n-octanol-PBS partition coefficient, logP of the compound; type: physicochemical
Liver [53] = test: Biodistribution in S180 tumor-bearing mouse liver at 8 to 10 uCi, iv after 120 mins by gamma counting; type: ADME, organism-based; conditions: in vivo, 2 h
Heart [54] = test: Biodistribution in S180 tumor-bearing mouse heart at 8 to 10 uCi, iv after 60 mins by gamma counting; type: ADME, organism-based; conditions: in vivo, 1 h
Spleen [55] = test: Biodistribution in S180 tumor-bearing mouse spleen at 8 to 10 uCi, iv after 120 mins by gamma counting; type: ADME, organism-based; conditions: in vivo, 2 h

Drug uptake (Lung [1]): 4.6 % ID/g
Ratio (Nucleic Acid [2]): 1.09
Ratio (Nucleic Acid [3]): 0.95
Drug uptake (Heart [4]): 5.02 % ID/g
Ratio (Nucleic Acid [5]): 1.87
Drug uptake (Muscle tissue [6]): 5.12 % ID/g
Drug uptake (Kidney [7]): 5.2 % ID/g
Drug uptake (Spleen [8]): 3.67 % ID/g
Stability [9]: Stable
Drug uptake (Stomach [10]): 5.35 % ID/g
Drug uptake (Stomach [11]): 4.44 % ID/g
Drug uptake (Blood [12]): 3.61 % ID/g
Ratio (Nucleic Acid [13]): 1.39
Drug uptake (Lung [14]): 4.57 % ID/g
Drug uptake (Muscle tissue [15]): 4.18 % ID/g
Ratio (Nucleic Acid [16]): 0.27
Drug uptake (Brain [17]): 3.15 % ID/g
Drug uptake (Liver [18]): 11.34 % ID/g
Drug uptake (Kidney [19]): 14.25 % ID/g
Drug uptake (Kidney [20]): 2.23 % ID/g
Drug uptake (Lung [21]): 2.57 % ID/g
Drug uptake (Stomach [22]): 11.87 % ID/g
Drug uptake (Mus musculus [23]): 5.51 % ID/g
Stability (Plasma): Stable
Drug uptake (Kidney [24]): 3.99 % ID/g
Drug uptake (Mus musculus [25]): 1.87 % ID/g
Ratio (Nucleic Acid [26]): 2.71
Drug uptake (Lung [27]): 3.75 % ID/g
Ratio (Nucleic Acid [28]): 0.99
Ratio (Nucleic Acid [29]): 1.3
Drug uptake (Blood [30]): 5.07 % ID/g
Drug uptake (Blood [31]): 7 % ID/g
Drug uptake (Muscle tissue [32]): 3.35 % ID/g
Drug uptake (Liver [33]): 5.38 % ID/g
Ratio (Nucleic Acid [34]): 1.84
Ratio (Nucleic Acid [35]): 0.37
Stability [36]: Stable
Drug uptake (Heart [37]): 2.52 % ID/g
Drug uptake (Brain [38]): 1.98 % ID/g
Ratio (Nucleic Acid [39]): 1.64
Drug uptake (Mus musculus [40]): 4.71 % ID/g
Drug uptake (Liver [41]): 4.22 % ID/g
Drug uptake (Mus musculus [42]): 5.8 % ID/g
Drug uptake (Muscle tissue [43]): 1.74 % ID/g
Drug uptake (Stomach [44]): 3.64 % ID/g
Ratio (Nucleic Acid [45]): 2.38
Drug uptake (Blood [46]): 5.85 % ID/g
Drug uptake (Brain [47]): 1.97 % ID/g
Drug uptake (Spleen [48]): 3.23 % ID/g
Drug uptake (Brain [49]): 2.94 % ID/g
Drug uptake (Spleen [50]): 4.5 % ID/g
Drug uptake (Heart [51]): 4.4 % ID/g
logP [52]: 0.39
Drug uptake (Liver [53]): 2.58 % ID/g
Drug uptake (Heart [54]): 4.26 % ID/g
Drug uptake (Spleen [55]): 2.39 % ID/g
Compound: COc1cc2ncnc(Nc3ccc(F)c(Cl)c3)c2cc1OCC[18F]
